# Measured values from patent US9340543B2, “Helquat derivatives, preparation thereof, and use thereof as medicaments” (USTAV ORGANICKE CHEMIE A BIOCHEMIE AKADEMIE VED CR, V.V.I., priority 2013, dated 2016).
# Read-outs that look alike come from different tables or passages of the source.
# Experiments:
# HeLa = experiment: CellTiter-Glo luminescent cell viability assay (ATP quantification), HeLa; type: cell-based; conditions: cervical cancer cells, 72 h treatment, viable cells by ATP luminescence
# Experimental: (§1) Influence of the test compounds on viability (proliferation) of cell lines used was investigated in concentration range 0-100 μmol·l^−1.
# Adherent cell line HeLa is a permanent in vitro culture derived from cervical cancer. HeLa cell line was cultivated in RPMI 1640 medium (Dutch modification) (Sigma-Aldrich, cat. no. R7638) with addition of 2 mmol·l^−1 glutamine (Invitrogen, see above), 10% fetal bovine serum (FBS, Sigma-Aldrich, see above), 100 IU/ml peniciline, 100 μg/ml streptomycine (Sigma-Aldrich, see above). Passaging was performed twice a week. After washing of cells with sterile PBS the cells were released by 0.25% trypsin/EDTA (Sigma-Aldrich, cat. no. T4049) at 37° C. for 2 minutes. The trypsin was inactivated by addition of 2 volumes of complete medium, cells were then centrifuged (250×g, 5 min), the cell pellet was resuspended, and transferred in the amount needed into a new cultivation bottle with fresh medium. Population doubling time of […] cell line was 25 h under the cultivation conditions used.
# (§2) In order to test the sensitivity of the cell lines towards the studied helquats, cytotoxity test for cell viability assessment based on ATP quantification in cell lysates was used (CellTiter-Glo® Luminescent Cell Viability Assay, Promega, cat. no. G7571). In this test, ATP in cell lysates is detected using luciferase reaction. Luminescence intensity correlates with the ATP level and thus with quantity of metabolically active (viable) cells. IC50 value serves as the output, that is the concentration of the test compound which leads to 50% reduction in number of viable cells as compared to control, untreated population. To this end, IC50 value reflects efficiency of the test compound with regard to the given cell line.
# (§3) Cells in the exponential growth phase were seeded into a 96-well microtiter plate were plated at 3000 cells per well. Each well contained 90 μl of cell suspension. The next day, 10 μl of 10× concentrated test compound solutions were added. The effect of helquats was investigated in concentration range 1 to 100 μmol·l^−1 (e.g. 1; 2.5; 5; 7.5; 10; 15; 25; 50 and 100 μmol·l^−1). Apart from the section containing the concentration series of the test compound, each well contained 2 control columns, the first with pure medium (so called blank) and the second with cells in medium without the test compounds (control). Into wells containing controls and blanks, volume of solvent (water) equal to the volume of added compound solutions was added. After 72 h of incubation with the test compounds viability was determined according to the manufacturer's instructions. In short: microtiter well plate was left 30 min to reach the room temperature after it has been removed from the incubator. Then, into each well, 100 μl of the prepared detection agent was added. Next, the well plate was shaken for 2 min to complete the full lysis. Next, after the well had been left in the dark for 15 min, the luminescence was measured in each well using luminometer (Tecan Genios, Austria).
# (§4) IC50 value represents concentration of the test compound, which leads to 50% reduction of viable cells (inhibition of cell growth) after 72 h of the treatment. Each helquat concentration was tested in triplicates in a IC50 quantification and at least 3 independent IC50 quantification experiments were performed. IC50 values over 100 μmol·l^−1 were obtained by extrapolation of data measured in concentration range 0-100 μmol·l^−1 for the given helquat.
# Hep G2 = experiment: CellTiter-Glo luminescent cell viability assay (ATP quantification), Hep G2; type: cell-based; conditions: hepatocellular carcinoma cells, 72 h treatment, viable cells by ATP luminescence
# Experimental: as §1
# Adherent cell line Hep G2 is a permanent in vitro culture derived from liver tissue of a patient with hepatocellular carcinoma. Hep G2 cell line was cultivated in DMEM medium (Sigma-Aldrich, cat. no. M4528) with addition of 2 mmol·l^−1 glutamine (Invitrogen, see above), 10% fetal bovine serum (FBS, Sigma-Aldrich, see above), 100 IU/ml peniciline, 100 μg/ml streptomycine (Sigma-Aldrich, see above). Passaging was performed twice a week. After washing of cells with sterile PBS, the cells were released by 0.25% trypsin/EDTA (Sigma-Aldrich, see above) at 37° C. for 2 minutes. The trypsin was inactivated by addition of 2 volumes of complete medium, cells were then centrifuged (250×g, 5 min), resuspended, and transferred in the amount needed into a new cultivation bottle with fresh medium. Population doubling time of Hep G2 cell line was 28 h under the cultivation conditions used.
# as §2
# as §3, with “In short: microtiter well plate was left 30 min to reach the room temperature after it has been removed from the incubator. Then, into each well, 100 μl of the prepared detection agent was added. Next, the well plate was shaken for 2 min to complete the full lysis.” left out, “Austria). […]” for “Austria).”
# HL-60 = experiment: CellTiter-Glo luminescent cell viability assay (ATP quantification), HL-60; type: cell-based; conditions: acute promyelocytic leukemia cells, 72 h treatment, viable cells by ATP luminescence
# Experimental: as §1
# Suspension cell line HL-60 is a permanent in vitro culture of acute promyelocytic leukemia. HL-60 cell line was cultivated in RPMI 1640 medium (Sigma-Aldrich, see above) with addition of 2 mmol·l^−1 glutamine (Invitrogen, see above), 10% fetal bovine serum (FBS, Sigma-Aldrich, see above), 100 IU/ml peniciline, 100 μg/ml streptomycine (Sigma-Aldrich, see above). Passaging was performed 2-3× a week. Population doubling time of HL-60 cell line was 23 h under the cultivation conditions used.
# as §2, §3, §4
# HUVEC = experiment: CellTiter-Glo luminescent cell viability assay (ATP quantification), HUVEC normal cells; type: cell-based, human; conditions: 72 h treatment
# Experimental: as §1
# Normal human endothelial cells from umbilical vein are adherent cells cultivated in plastic Petri dishes coated with collagen I. Into the cultivation medium (E-STIM™; BD Biosciences, cat. co. 355054) already containing 2% FBS (fetal bovine serum), hydrocortisone and heparin the following two further ingredients were added: epidermal growth factor (EGF, 5 μg) and mixture of factors facilitating growth of endothelial cells (ECGS, 100 mg). […] The cells were passaged after reaching 90% confluency by dissociation using 0.25% solution of trypsin/EDTA (1 ml; 3 min; 37° C.). After that 5 ml of complete cultivation medium E-STIM™ was added and the cells were centrifuged (180×g, 7 min), the pellet was resuspended, and transferred in the amount needed into a new Petri dish with fresh medium. The cells were used in experiments between the 3rd and the 8th passage after defreezing. Population doubling time of HUVEC cell line was 38 h under the cultivation conditions used.
# as §2, §3, §4
# NHDF-Ad = experiment: CellTiter-Glo luminescent cell viability assay (ATP quantification), NHDF-Ad normal cells; type: cell-based; conditions: normal human dermal fibroblasts, 72 h treatment
# Source text: as §1
# Normal human dermal fibroblasts were cultivated without antibiotics in basal medium for fibroblasts (ATCC/LGC Standards, cat. no. PCS-201-030) with added “Fibroblast Growth Kit-Low serum” (ATCC/LGC Standards, cat. no. PCS-201-041) containing 2% FBS, L-glutamine, hydrocortisone, ascorbic acid, rh FGF beta, rh insulin. When 90% confluency was reached the fibroblasts were washed with sterile PBS (5 ml) and dissociated by addition of 0.25% solution of trypsin/EDTA (2 ml; 2 min; 37° C.). After that 5 ml of cultivation medium for fibroblasts was added and the cells were centrifuged (180×g, 7 min), the cell pellet was resuspended, and transferred in the amount needed into a new cultivation bottle with fresh medium. The same cell release procedure was applied when the cells were to be used in experiments. The cells were used in experiments between the 3rd and the 15th passage after defreeezing. Population doubling time of NHDF-Ad cell line was 33 h under the cultivation conditions used.
# as §2, §3, §4
# [1] = viable cells by ATP luminescence, class symbols
smiles,measurement,setting,value
"COc1ccc2cc(/C=C/c3cc[n+]4c(c3)-c3c(c(C)c(C)c5c3-c3c6ccccc6cc[n+]3CC5)CC4)ccc2c1 [(M)-7, (M)-(E)-13-(2-(6-methoxynaphthalene-2-yl)vinyl)-6,7-dimethyl-4,5,8,9-tetrahydroisoquinolino[1,2-a]pyrido[1,2-k][2,9]phenanthroline-3,10-diium trifluoromethanesulfonate]",IC50,HeLa,< 10 µM
same,IC50,Hep G2; read-out: IC50 HepG2,11 to 50 µM
same,IC50,HL-60,< 10 µM
same,IC50,"HUVEC; normal human endothelial cells from umbilical vein, viable cells by ATP luminescence, class symbols",51 to 150 µM
same,IC50,NHDF-Ad; [1],51 to 150 µM
"COc1ccc(/C=C/c2cc[n+]3c(c2)-c2c(c(C)c(C)c4c2-c2c5ccccc5cc[n+]2CC4)CC3)cc1 [(M)-6, (M)-(E)-13-(4-methoxystyryl)-6,7-dimethyl-4,5,8,9-tetrahydroisoquinolino[1,2-a]pyrido[1,2-k][2,9]phenanthroline-3,10-diium trifluoromethanesulfonate]",IC50,"HeLa; Homo sapiens, HeLa",11 to 50 µM
same,IC50,"Hep G2; Homo sapiens, HepG2",11 to 50 µM
same,IC50,"HL-60; Homo sapiens, HL-60",11 to 50 µM
same,IC50,"HUVEC; HUVEC, normal human endothelial cells, numeric bound, values over 100 obtained by extrapolation of data measured at 0-100 μmol·l−1",> 150 µM
same,IC50,"NHDF-Ad; Fibroblast, numeric bound, values over 100 obtained by extrapolation of data measured at 0-100 μmol·l−1",> 150 µM
"Cc1c(C)c2c(c3c1CC[n+]1ccc(/C=C/c4ccc(N(C)C)cc4)cc1-3)-c1c3ccccc3cc[n+]1CC2 [(M)-1, (M)-(E)-13-(4-(dimethylamino)styryl)-6,7-dimethyl-4,5,8,9-tetrahydroiso-quinolino[1,2-a]pyrido[1,2-k][2,9]phenanthroline-3,10-diium trifluoromethanesulfonate]",IC50,HeLa,< 10 µM
same,IC50,Hep G2; read-out: IC50 HepG2,11 to 50 µM
same,IC50,HL-60,< 10 µM
same,IC50,"HUVEC; normal human endothelial cells, numeric bound, values over 100 obtained by extrapolation of data measured at 0-100 μmol·l−1",> 150 µM
same,IC50,NHDF-Ad; [1],51 to 150 µM
